Experimental data as given in PMC12040169 (PLOS Biology, 2025).

Test: in vitro
Conditions: human, hela cells, % viability

| Compound | viability at 28.5 h, 10 µM |
| --- | --- |
| Cc1c(C(=O)N2CCn3nc(CO)cc3C2)n(C)c2ccc(F)cc12 [CBK306552] | 97.7% |
| CCn1nc(CC(C)C)cc1C(=O)NCCc1cn2cccnc2n1 [CBK306553] | 98.9% |
| CN(c1ncccc1CNC(=O)c1cccnc1)C1CCCCC1 [CBK306555] | 103% |
| Nc1nc(NCCOc2ccccc2F)cc(C2CCOC2)n1 (stereo not shown) [CBK306559] | 78.2% |
| CCC(NC(=O)CCOC)c1cn2cccnc2n1 (stereo not shown) [CBK306560] | 88.2% |
| COc1ccc2c(c1)c(C(=O)N1CCC3(CCNCC3)CC1)c(C)n2C [CBK306562] | 72.9% |
| CCCn1nccc1C(=O)NC1CCCN(Cc2cccc(OC)c2)C1 (stereo not shown) [CBK306563] | 84.9% |
| COCCn1c(CO)nnc1[C@H]1C[C@@H](NC(=O)c2cc(C)ccc2Cl)C1 [CBK306564] | 81.2% |
| N#Cc1cccnc1N1CCC(NC(=O)c2ccc3nccn3c2)CC1 [CBK306566] | 95.1% |
| COc1cccc2ncn(C(C)c3nc(C)sc3C)c(=O)c12 (stereo not shown) [CBK306570] | 109% |
| O=C(N[C@@H]1CCOC[C@H]1Oc1ccc(CO)cc1)c1ccc(F)cc1 [CBK306571] | 112% |
| CCn1nc(C)cc1C(=O)N1Cc2cnn(Cc3ccc(F)cc3)c2C1 [CBK306574] | 96.7% |
| Cc1nc(N)nc(NCC2CCN(C3CC3)C2)c1Cl (stereo not shown) [CBK306575] | 85.9% |
| COCCN(Cc1cnn(C)c1)C(=O)Cc1ccccn1 [CBK306576] | 112% |
| OC[C@H]1CCN(Cc2cc(Cl)ccc2OCCCn2ccnc2)C[C@H]1O [CBK306581] | 88.4% |
| O=C(c1ccc(N2CCSCC2)nc1)N1CCC(N2CCOCC2)CC1 [CBK306582] | 78.6% |
| CCOc1ccc(-c2ccnc(N3C[C@@H](C)O[C@@H](C)C3)n2)cc1C(=O)O [CBK306584] | 92.5% |
| CN(Cc1nc(-c2ccccc2)no1)C(=O)C1CC2(CCNCC2)CN1 (stereo not shown) [CBK306585] | 88.7% |
| N#Cc1cccnc1N1CCC(NC(=O)c2cc(Cl)c[nH]c2=O)CC1 [CBK306586] | 104% |

| Compound | viability at 28.5 h, 10 µM |
| --- | --- |
| CC(=O)N1CC2(CCN(Cc3nccn3C(C)C)CC2)CC1C(=O)O (stereo not shown) [CBK306587] | 93.7% |
| CCC(O)Cn1nc(CCSC)nc1-c1cn(C)c(=O)[nH]c1=O (stereo not shown) [CBK306588] | 83.5% |
| Cc1ccc(C)c(NC(=O)CCNC(=O)c2cnn3cc(C)cnc23)c1 [CBK306590] | 87.5% |
| Cc1cccn2c(CN(C)C(C)C(N)=O)c(C(=O)N3CCOCC3)nc12 (stereo not shown) [CBK306592] | 105% |
| O=C(Cn1cccnc1=O)NC(c1ccc2c(c1)CCO2)C1CC(O)C1 (stereo not shown) [CBK306595] | 75.3% |
| CCc1nccn1CCC(=O)N1CC(OCc2ccccc2F)C1 [CBK306597] | 88.5% |
| O=C(CCN1CCn2nc(C(O)C3CC3)cc2C1)NCc1cccs1 (stereo not shown) [CBK306603] | 93.1% |
| CCn1c(C)nnc1SCCNc1cc(C)nc2ccnn12 [CBK306607] | 99.7% |
| CCCn1cc(NC(=O)NCc2cc3c(cc2OC)CCC3)nn1 [CBK306614] | 86.4% |
| O=C(O)C1(Oc2ccc3ccccc3c2)CCN(C2CCNCC2)CC1 [CBK306615] | 108% |
| O=C(NCC1CCOC1)c1ccc(-c2ccccc2CO)cc1 (stereo not shown) [CBK306616] | 107% |
| COc1ccnc(NC(c2cnn(C)c2)[C@H]2C[C@@H](O)C2)n1 (stereo partly shown) [CBK306617] | 97.8% |
| Cc1ccc(OCc2occc2C(=O)N2CCCn3cncc3C2)cc1 [CBK306618] | 92.7% |
| CCn1ccnc1CN1CCOC(Cc2ccccc2Cl)C1 (stereo not shown) [CBK306625] | 94.5% |
| CCn1nc(C2CCCC2)nc1-c1cnc2ccnn2c1C [CBK306626] | 87.1% |
| O=C(NCCN1CCCCC1)C1CC(=O)N(Cc2ccncc2)C1 (stereo not shown) [CBK306629] | 100% |
| CCN(CCn1cccn1)c1nc2nonc2nc1N(C)C [CBK306630] | 88.9% |
| Cc1cc(N)n(CC(=O)NCCCn2ccnc2C(C)C)n1 [CBK306632] | 89.3% |
